Measurements as given in patent US20110236330A1, “Skin Whitening” (priority 2008, published 2011).

Columns and labels:
[1] = tested on: Melanocytes (B16 cell line); assay: Melanogenesis inhibition assay (melanin level and cellular protein level); format: cell-based; settings: 3 days incubation; for Protein level: cellular proteins (Bradford) as number of viable cells; for Melanin level: optical density at 475 nm
Protocol: Melanocytes (B16 cell line) are inoculated in standard medium of cell culture with fetal calf serum (FCS). After an incubation of 3 days at 37° C. and CO2=5%, growth medium is exchanged for standard medium with a range of concentrations for each compound to be tested and a control without ingredient. After an incubation of 3 days, the level of melanin is measured by recording the optical density at 475 nm. After washing the cells by a balanced salt, and homogenization in a solution of 0.1 M NaOH, the number of viable cells is determined by the level of cellular proteins (Bradford's method).
The results are expressed in % against control (cell culture medium without compound) as a mean on 2 to 3 assays, each in triplicate.

[2] = Stability assay (visual coloration of solutions on storage); format: physicochemical; design: key to Coloration: —: no coloration; +: moderate coloration; ++: strong coloration; settings: for Coloration: room temperature, aqueous buffer:ethanol 1:1, away from day light; for Stability in protic solution: up to 120 days of incubation
Protocol: 5-hydroxy-L-tryptophan, 6-fluoro-DL-tryptophan, 4-methyl-DL-tryptophan were dissolved at 1 or 10 mg/ml in a solution aqueous buffer at ph 5.5 and pH 7 (citric acid 0.1 M, Na2HPO4 0.2 M):ethanol 1:1 vol:vol. The solutions are kept away from day light and stored at room temperature. After 30, 60 and 120 days, the coloration of the solutions are visually assessed.

Row | Compound | Coloration ([2]; pH 5.5, 30 days) | Coloration ([2]; pH 5.5, 60 days) | Coloration ([2]; pH 5.5, 120 days) | Coloration ([2]; pH 7.0, 30 days) | Coloration ([2]; pH 7.0, 60 days) | Coloration ([2]; pH 7.0, 120 days) | Stability in protic solution ([2]; pH 5.5 and 7) | Coloration of the solution (in words) ([2]; at 30 days, protic solution, pH 5.5 and 7) | Protein level ([1]; dose 0.001 % (w/v)) [%/control] | Melanin level ([1]; dose 0.001 % (w/v)) [%/control] | Protein level ([1]; dose 0.003 % (w/v)) [%/control] | Melanin level ([1]; dose 0.003 % (w/v)) [%/control] | Protein level ([1]; dose 0.01 % (w/v)) [%/control] | Melanin level ([1]; dose 0.01 % (w/v)) [%/control]
1 | Cc1cccc2[nH]cc(CC(N)C(=O)O)c12 (racemic) [4-Methyl-DL-Tryptophan] | — | — | — | — | — | — | high stability |  | 97 | 56 | 100 | 33 |  | 
2 | COc1ccc2[nH]cc(CC(N)C(=O)O)c2c1 (racemic) [5-Methoxy-DL-Tryptophan] |  |  |  |  |  |  |  |  | 96 | 90 | 92 | 65 |  | 
3 | Cc1ccc2c(CC(N)C(=O)O)c[nH]c2c1 (racemic) [6-Methyl-DL-Tryptophan] |  |  |  |  |  |  |  |  |  |  | 102 | 81 | 100 | 39

More lines, main results first:

Row | Coloration ([2]; pH 5.5, 30 days) | Coloration ([2]; pH 5.5, 60 days) | Coloration ([2]; pH 5.5, 120 days) | Coloration ([2]; pH 7.0, 30 days) | Coloration ([2]; pH 7.0, 60 days) | Coloration ([2]; pH 7.0, 120 days) | Stability in protic solution ([2]; pH 5.5 and 7) | Coloration of the solution (in words) ([2]; at 30 days, protic solution, pH 5.5 and 7) | Compound | Protein level ([1]; dose 0.001 % (w/v)) [%/control] | Melanin level ([1]; dose 0.001 % (w/v)) [%/control] | Protein level ([1]; dose 0.003 % (w/v)) [%/control] | Melanin level ([1]; dose 0.003 % (w/v)) [%/control] | Protein level ([1]; dose 0.01 % (w/v)) [%/control] | Melanin level ([1]; dose 0.01 % (w/v)) [%/control]
4 | — | — | — | — | — | — | high stability |  | NC(Cc1c[nH]c2cc(F)ccc12)C(=O)O (racemic) [6-Fluoro-DL-Tryptophan] | 106 | 44 | 108 | 10 |  | 
5 | ++ | ++ | ++ | ++ | ++ | ++ |  | visible dark-brown coloration | N[C@@H](Cc1c[nH]c2ccc(O)cc12)C(=O)O [5-hydroxy-L-tryptophan, 5-Hydroxy-L-Tryptophan, reference compound] |  |  |  |  |  | 
